Where two headings read alike, the source gives them in different places.
Experiments:
[1] = Dynamic solubility test in water, SGF, FaSSIF, FeSSIF at 37° C.; type: physicochemical; conditions: for solubility at 1 h / solubility at 4 h / solubility at 24 h: read-out: solubility (S)
[2] = Pharmacokinetic experiment in rats after gavage; type: in vivo; conditions: male SD rats, gavage 2 mg·kg^−1
Description: After 6 healthy male SD rats were fasted and drank water freely for 12 h, the rats was administered by gavage with the potassium salt crystal form B prepared in Embodiment 1 at 2 mg·kg^−1, and blood was taken from the Bulbus oculi venous plexus at 0.2 h, 0.5 h, 1 h, 1.5 h, 2 h, 4 h, 6 h and 8 h after administration. A solution of acetonitrile:water (1:1) was added, and centrifuging was conducted to take the supernatant for chromatographic analysis, at conditions: a chromatographic column: Thermo Fisher Hypersil gold column (3 μm, 20 mm×2.1 mm), an injection volume of 10 μL, a flow rate of 0.3 mL/min, a column temperature of 40° C., a mobile phase of water (1% formic acid) and methanol, gradient elution: methanol 10% (0 min); 10% (1 min); 90% (4 min); 90% (8 min); 10% (9 min), and with mass spectrometry conditions: multiple reaction monitoring (MRM), electrospray ionization (ESI), retention time (Dwell Time) of 200 ms, detection ion m/z 448.0-347.8. The data of blood drug concentration was analyzed with Winnolin6.3 software to obtain the pharmacokinetic parameters, thereby forming the mean blood drug concentration-time curve, as shown in FIG. 19.

## CCCCOC(=O)[N-]S(=O)(=O)c1cccc(-c2nc3c(CCC)nn(C)c3c(=O)[nH]2)c1.[K+] [potassium salt crystal form B]
[1]; FaSSIF, 1 h
  crystal form change after XRPD assay (FC): yes
  pH: 6.8
[1]; FaSSIF, 4 h
  crystal form change after XRPD assay (FC): yes
  pH: 6.8
[1]; FaSSIF, 24 h
  crystal form change after XRPD assay (FC): yes
  pH: 6.8
[1]; FeSSIF, 1 h
  crystal form change after XRPD assay (FC): yes
  pH: 5.5
[1]; FeSSIF, 4 h
  crystal form change after XRPD assay (FC): yes
  pH: 5.5
[1]; FeSSIF, 24 h
  crystal form change after XRPD assay (FC): yes
  pH: 5.5
[1]; SGF, 1 h
  crystal form change after XRPD assay (FC): yes
  pH: 7.5
[1]; SGF, 4 h
  crystal form change after XRPD assay (FC): yes
  pH: 7.3
[1]; SGF, 24 h
  crystal form change after XRPD assay (FC): yes
  pH: 7.7
[1]; fasted-state simulated intestinal fluid (FaSSIF), thermodynamic from solid, FaSSIF, 1 h
  solubility at 1 h: 10700 µg/mL
[1]; fasted-state simulated intestinal fluid (FaSSIF), thermodynamic from solid, FaSSIF, 4 h
  solubility at 4 h: 9500 µg/mL
[1]; fasted-state simulated intestinal fluid (FaSSIF), thermodynamic from solid, FaSSIF, 24 h
  solubility at 24 h: 9800 µg/mL
[1]; fed-state simulated intestinal fluid (FeSSIF), thermodynamic from solid, FeSSIF, 1 h
  solubility at 1 h: 400 µg/mL
[1]; fed-state simulated intestinal fluid (FeSSIF), thermodynamic from solid, FeSSIF, 4 h
  solubility at 4 h: 430 µg/mL
[1]; fed-state simulated intestinal fluid (FeSSIF), thermodynamic from solid, FeSSIF, 24 h
  solubility at 24 h: 430 µg/mL
[1]; simulated gastric fluid (SGF), simulated gastric fluid, thermodynamic from solid, SGF, 1 h
  solubility at 1 h: 6800 µg/mL
[1]; simulated gastric fluid (SGF), simulated gastric fluid, thermodynamic from solid, SGF, 4 h
  solubility at 4 h: 7000 µg/mL
[1]; simulated gastric fluid (SGF), simulated gastric fluid, thermodynamic from solid, SGF, 24 h
  solubility at 24 h: 7700 µg/mL
[1]; thermodynamic from solid, water, 1 h
  solubility at 1 h: 12500 µg/mL
[1]; thermodynamic from solid, water, 4 h
  solubility at 4 h: 13100 µg/mL
[1]; thermodynamic from solid, water, 24 h
  solubility at 24 h: 12900 µg/mL
[1]; thermodynamic from solid, water, read-out: solubility in water (the highest)
  solubility: ≤ 12900 µg/mL
[1]; water, 1 h
  crystal form change after XRPD assay (FC): weak
  pH: 7.6
[1]; water, 4 h
  crystal form change after XRPD assay (FC): weak
  pH: 7.4
[1]; water, 24 h
  crystal form change after XRPD assay (FC): weak
  pH: 7.4
[2]
  time at which the peak drug concentration was reached: 0.63 ± 0.12 h
[2]; rat, blood, po, read-out: AUC(0-4) within 8 h after administration
  AUC(0-t): 639 ± 72.4 ng·h/mL
[2]; rat, blood, po, read-out: maximum drug concentration (Cmax)
  Cmax: 334 ± 23.7 ng/mL
[2]; rat, blood, po, read-out: oral half-life (t112) (converted)
  half-life: 2.3 ± 0.27 h
[2]; rat, blood, po, read-out: total area under the mean blood drug concentration-time curve AUC0-∞
  AUC(0-inf): 650 ± 70.8 ng·h/mL

From patent publication US12441732B2, “Potassium salt crystal form B of phosphodiesterase type 5 inhibitor, and preparation method and use therefor” (Guangzhou Huazhen Pharmaceutical Co., Ltd, priority 2019, dated 2025)
